Results: patent US9090583B2, “Benzopyrone estrogen receptor regulator” (BEIJING SHENOGEN PHARMA GROUP LTD., priority 2010, dated 2015)
In brackets after ≈: the same amount, converted by molar mass. Like-named read-outs stand apart in the source and are kept apart here.

Tests used:
MDA-MB-231 cells = experiment: CellTiter-Glo Luminescent Cell Viability Assay on ER-negative breast cancer MDA-MB-231 cells; assay type: cell-based; conditions: average ± standard deviation when tested more than 3 times, read-out: Inhibition of the viability of breast cancer cells, IC50
Method in brief: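 Cells seeded at 6×10^3 per well in DMEM with 10% FCS and exposed 72 h to compound at 0 to 100 μM (twelve concentrations, DMSO vehicle). Viability measured by CellTiter-Glo luminescence.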

MCF7 cells = experiment: CellTiter-Glo Luminescent Cell Viability Assay on ER-positive breast cancer MCF-7 cells; assay type: cell-based, human; conditions: 72 hours, average ± standard deviation when tested more than 3 times, read-out: Inhibition of the viability of breast cancer cells, IC50
Method in brief: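 MCF7 cells (DMEM, 10% FCS, 37 °C) treated 72 h with compound at 0–100 μM (0.3, 0.5, 1, 2, 3, 5, 10, 20, 30, 50, 100 μM). Viability measured by CellTiter-Glo luminescence.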

HEC-1A cells = experiment: CellTiter-Glo Luminescent assay on endometrial cancer HEC-1A cells; assay type: cell-based, human; conditions: 72 hours, read-out: Inhibition of the viability of endometrial cancer cells, IC50
Protocol: CellTiter-Glo® Luminescent Assay to Measure the Inhibitory Activity of the Compounds on In Vitro Growth of Endometrial Cancer HEC-1A Cells
(§1) HEC-1A cells are endometrial cancer cell lines only expressing ER-36. Human endometrial cancer HEC-1A cells were obtained from ATCC and maintained in DMEM and 10% fetal calf serum at 37° C., under 5% CO2 atmosphere. The cells were seeded on 96-well plate at a density of 6×10^3 cells per well. HEC-1A cells were treated with a test compound dissolved in DMSO at the concentrations of zero, 0.3 μM, 0.5 μM, 1 μM, 2 μM, 3 μM, 5 μM, 20 μM, 30 μM, 50 μM and 100 μM for 72 hours. Treated cells were examined by CellTiter-Glo® Luminescent Cell Viability Assay Kit (Promega), and luminescence values were recorded with Envision.

CoC1 cells = experiment: CellTiter-Glo Luminescent Cell Viability Assay on ovary cancer CoC1 cells; assay type: cell-based; conditions: 72 hours, read-out: Inhibition of the viability of ovary cancer cells, IC50
Protocol: B: In Vitro CellTiter-Glo® Luminescent Cell Viability Assay on Ovary Cancer CoC1 Cells
as §1, with “The ovary” for “HEC-1A cells are endometrial”, “CoC1” for “cell lines only expressing ER-36. Human endometrial cancer HEC-1A”, “Cancer hospital, Chinese Academy of Medical Sciences” for “ATCC”, “RPMI-1640” for “DMEM”, “CoC1” for “HEC-1A”, “10” for “20”

K562 cells = experiment: CellTiter-Glo Luminescent Cell Viability Assay on leukemia K562 cells; assay type: cell-based, human; conditions: 72 hours, read-out: Inhibition of the viability of leukemia cells, IC50
Protocol: A: In Vitro CellTiter-Glo® Luminescent Cell Viability Assay on Leukemia K562 Cells
(§2) The leukemia K562 cells were obtained from ATCC and maintained in IMDM and 10% fetal calf serum at 37° C., under 5% CO2 atmosphere. The cells were seeded on 96-well plate at a density of 6×10^3 cells per well. K562 cells were treated with a test compound dissolved in DMSO at the concentrations of zero, 0.3 μM, 0.5 μM, 1 μM, 2 μM, 3 μM, 5 μM, 10 μM, 20 μM, 30 μM, 50 μM and 100 μM for 72 hours. Treated cells were examined by CellTiter-Glo® Luminescent Cell Viability Assay Kit (Promega), and luminescence values were recorded with Envision.

HL-60 cells = experiment: CellTiter-Glo Luminescent Cell Viability Assay on leukemia HL-60 cells; assay type: cell-based, human; conditions: 72 hours, read-out: Inhibition of the viability of leukemia cells, IC50
Protocol: B: In Vitro CellTiter-Glo® Luminescent Cell Viability Assay on Leukemia HL-60 Cells
as §2, with “HL-60” for “K562”

Molt-4 cells = experiment: CellTiter-Glo Luminescent Cell Viability Assay on leukemia Molt-4 cells; assay type: cell-based; conditions: 72 hours, read-out: Inhibition of the viability of leukemia cells, IC50
Protocol: C: In Vitro CellTiter-Glo® Luminescent Cell Viability Assay on Leukemia Molt-4 Cells
as §2, with “leukemia Molt-4” for “leukemia K562”, “in RPMI-1640” for “in IMDM”, “well. […]” for “well. K562”

Hep3B2.1-7 cells = experiment: MTT assay, in vitro growth of liver cancer Hep3B2.1-7 cells; assay type: cell-based; conditions: 72 hours
Protocol: The liver cancer Hep3B2.1-7 cells were obtained from ATCC. Cells were incubated in 1640 culture medium with 5% fetal calf serum and 100 U/ml double-antibody in a cell incubator at 37° C., 5% CO2 atmosphere and passaged via conventional methods. The sample was dissolved in DMSO, formulated into 50 mg/ml stocking solution, and stored at 4° C. The test solutions at 50, 25, 12.5 and 6.25 μg/ml were formulated with culture medium immediately before use.
The adherent cells were digested with cell digestive solution, and then the exfoliated cells were collected and counted. The cell suspension was formulated with 1640 culture medium containing 5% fetal calf serum (5.0×10^4/ml). The cell suspension was seeded on 96-well plate with 100 μl/well, and maintained in a cell incubator at 37° C., 5% CO2 atmosphere for 24 hours. After that, the compounds at various concentrations were added, where solvent was taken as negative control and Taxol as positive control. 10 μl MTT (5 mg/ml) was added after 72 hours. The supernatant was removed after cultivation for 3 hours more, 150 μl DMSO was added and the formazan was dissolved on shaking. OD values were measured at 570 nm after homogeneous mixing, and inhibition rate and IC50 values were calculated based on the mean of OD values from 3 wells.

SK-OV3 cells = experiment: CellTiter-Glo Luminescent Cell Viability Assay on ovary cancer SK-OV3 cells; assay type: cell-based; conditions: 72 hours, read-out: Inhibition of the viability of ovary cancer cells, IC50
Protocol: C: In Vitro CellTiter-Glo® Luminescent Cell Viability Assay on Ovary Cancer SK-OV3 Cells
as §2, with “ovary cancer SK-OV3” for “leukemia K562”, “Cancer hospital, Chinese Academy of Medical Sciences” for “ATCC”, “RPMI-1640” for “IMDM”, “SK-OV3” for “K562”

HO8910 cells = experiment: CellTiter-Glo Luminescent Cell Viability Assay on ovary cancer HO8910 cells; assay type: cell-based; conditions: HO-8910 cells; 72 hours; read-out: Inhibition of the viability of ovary cancer cells, IC50
Protocol: A: In Vitro CellTiter-Glo® Luminescent Cell Viability Assay on Ovary Cancer HO8910 Cells
as §2, with “Ovary cancer HO8910” for “The leukemia K562”, “Type Culture Collection of the Chinese Academy of Sciences, Shanghai,” for “ATCC”, “RPMI-1640” for “IMDM”, “HO8910” for “K562”

ER-α36 = molecular target: T1, ER-α36 (Homo sapiens, UniProt P03372); experiment: Regulation of ER-α36 protein expression in HEC-1A cells (Western blot); assay type: cell-based; conditions: serum-depleted HEC-1A cells; 1, 10, 50 and 100 nM; 24 and 48 hours; effect above the concentration of 50 nM
T1 construct: endogenous in cells; host or cells: HEC-1A human endometrial cancer cells
T1 sequence (P03372 1-310 isoform P03372-4): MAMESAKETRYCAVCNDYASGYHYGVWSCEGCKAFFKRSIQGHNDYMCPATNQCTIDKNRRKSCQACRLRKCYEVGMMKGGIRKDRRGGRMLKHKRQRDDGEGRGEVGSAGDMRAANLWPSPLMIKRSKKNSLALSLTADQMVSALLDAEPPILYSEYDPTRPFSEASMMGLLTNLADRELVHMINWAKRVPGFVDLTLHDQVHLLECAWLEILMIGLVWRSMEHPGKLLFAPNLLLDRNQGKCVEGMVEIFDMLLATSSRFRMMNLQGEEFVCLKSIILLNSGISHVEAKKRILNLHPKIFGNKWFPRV
Protocol: Taking endometrial cancer HEC-1A cells as an example, serum-depleted HEC-1A cells were treated with compounds at concentrations of 1, 10, 50 and 100 nM for 24 hours and 48 hours. The treated cells were washed with PBS and lysed with lysis buffer (a mixture of 1*PBS (pH7.4), 1% NP-40, 0.7 mMEDTA, and protease inhibitor from Roche). The lysates were boiled for 5 minutes in a SDS gel loading buffer (25 mM Tris-Cl pH 6.8; 10% SDS; 2% glycerol; 20% β-mercaptoethanol; 0.01% bromophenol blue) and separated on a 10% SDS-PAGE gel. After electrophoresis, the proteins were transferred onto PVDF membrane (Millipore Transfer Membrane). The membrane was probed with Rabbit anti-ER36 antibody which is specific to 20 amino acid polypeptides at C-terminus of ER-α36. Then the membrane was incubated with an HRP-conjugated secondary antibody and visualized with ECL detection reagents.

Compound	IC50 (MDA-MB-231 cells; 72 hours)	IC50 (MCF7 cells)	IC50 (HEC-1A cells)	IC50 (CoC1 cells)	IC50 (K562 cells)	IC50 (HL-60 cells)	IC50 (Molt-4 cells)	Inhibition on liver cancer cells, IC50 (Hep3B2.1-7 cells)	IC50 (SK-OV3 cells)	IC50 (HO8910 cells)	IC50 (MDA-MB-231 cells; Homo sapiens, MDA-MB-231, 72 h)	IC50 (Hep3B2.1-7 cells; read-out: Inhibition on liver cancer cells, IC50)	expression of ER-36 in cells (ER-α36)
2-(-fluoro-4-chlorophenyl)-5,7-dihydroxy-3-methoxy-6,8-di(3-methyl-2-buten-1-yl)-4H-benzopyran-4-one [Compound 5]	7.03 ± 1.06 µM	6.73 ± 1.58 µM	7.14 µM	6.91 µM	12 µM	8.96 µM	9.13 µM	1.45 µg/mL	–	–	–	–	–
COc1c(-c2ccc(C(F)(F)F)c(F)c2)oc2c(CC=C(C)C)c(O)c(CC=C(C)C)c(O)c2c1=O [Compound 6, 2-(3-fluoro-4-trifluoromethylphenyl)-5,7-dihydroxy-3-methoxy-6,8-di(3-methyl-2-butylene-1-yl)-4H-benzopyran-4-one]	7.06 ± 2.13 µM	5.14 ± 0.47 µM	4.02 µM	–	> 100 µM	> 100 µM	> 100 µM	–	–	–	–	–	–
COc1c(-c2ccc(F)c(Cl)c2)oc2c(CC=C(C)C)c(O)c(CC=C(C)C)c(O)c2c1=O [Compound 8, 2-(3-chloro-4-fluorophenyl)-5,7-dihydroxy-3-methoxy-6,8-di(3-methyl-2-butylene-1-yl)-4H-benzopyran-4-one]	9.96 ± 1.97 µM	8.58 ± 0.24 µM	–	11.8 µM	12.8 µM	17.9 µM	15.3 µM	1.46 µg/mL	24.3 µM	22.3 µM	–	–	–
COc1c(-c2ccc(C(F)(F)F)cc2)oc2c(CC=C(C)C)c(O)c(CC=C(C)C)c(O)c2c1=O [Compound 15, 2-(4-trifluoromethylphenyl)-5,7-dihydroxy-3-methoxy-6,8-di(3-methyl-2-butylene-1-yl)-4H-benzopyran-4-one]	9.91 ± 0.11 µM	8.28 ± 2.2 µM	8.35 µM	–	12.4 µM	15.7 µM	13.2 µM	0.00138 µg/mL	–	–	–	–	–
COc1c(-c2ccc3nccnc3c2)oc2c(CC=C(C)C)c(O)c(CC=C(C)C)c(O)c2c1=O [Compound 18, 2-(quinoxalin-6-yl)-5,7-dihydroxy-3-methoxy-6,8-di(3-methyl-2-butylene-1-yl)-4H-benzopyran-4-one]	11.9 ± 0.4 µM	12.03 ± 0.09 µM	13.8 µM	–	> 100 µM	> 100 µM	14.2 µM	–	–	–	–	–	–
CC(C)=CCc1c(O)c(CC=C(C)C)c2oc(-c3ccc(C(F)(F)F)cc3)c(O)c(=O)c2c1O [Compound 98, 2-(4-trifluoromethylphenyl)-3,5,7-trihydroxy-6,8-di(3-methyl-2-buten-1-yl)-4H-benzopyran-4-one]	–	–	–	–	–	–	–	–	–	–	1.62 µM	0.0144 µg/mL (≈ 0.0303 µM)	dramatically reduced
